# Results as given in patent publication US10632324B2, “Method for the treatment of skin tissues” (9127-4910 Quebec Inc., priority 2017, dated 2020).
# Assays:
# [1] = test system: cystic acne; assay: Split face/back pre-PDT radiant IR study, 11 cystic acne patients (Example 7); assay type: in vivo, human; details: IR 970 nm 50 mW/cm2 15 min before 5-ALA; one month after PDT; most patients
# Protocol: (§1) Study Design/Materials and Methods: Eleven (11) patients were enrolled in a split face or split back (pre-treated side versus control) study with a pre-approved IRB protocol. […] Lesion count was assessed both manually and by digital photography before and 4 weeks after one PDT procedure. Prior to the application of 5-ALA, one side of the face or back was pre-treated with radiant IR [CW LEDs emitting @λ 970 nm, irradiance 50 mW/cm2 for 15 minutes, total fluence 45 J/cm2], while the other half was used as control. PDT was then performed on the entire surface (face or back).
# [2] = test system: cystic acne; assay: Split face/back pre-PDT radiant IR study, 10 cystic acne patients (Example 8); assay type: in vivo, human; details: for decrease in the number of cystic lesions: one month after PDT
# Protocol: as §1, with “In summary, ten” for “Study Design/Materials and Methods: Eleven (11)”, “back) using 5-ALA in a conventional manner.” for “back).”
# Patients were assigned to a split face or split back group. One side was pre-treated for 15 minutes with radiant IR [CW LEDs emitting @λ 970 nm, irradiance 50 mW/cm^2, total fluence 45 J/cm^2] to obtain a temperature of about 42 Celsius, while the other side was used as control. ALA was then applied after which PDT was performed on the entire face or back surface. Lesion count was assessed manually and by digital photography, before and 4 weeks after the PDT procedure. Exclusion criteria were: current use of the following medications: (Prednisone), anticoagulant therapy, drugs known to cause photo-sensitivity reactions. In addition, during 12 months preceding the study, subjects are required not to take Accutane (isotretinoin); use of corticosteroids on the treated area within 2 weeks of first treatment; use of topical tretinoin (like Retisol-A, Retin-A, Vitamin A acid, Retin-A micro) for at least 1 month prior to enrollment; yanned skin around or on the area to be treated: the back. previous laser of medicated treatment at the treatment site (to be studied) and for the duration of the study; presence of any known diseases among vitiligo, psoriasis, severe eczema, poor skin healing. active infection, immunosuppression, coagulation problem, peripheral arterial disease, hematologic abnormalities, vasculitis, and previous history of epilepsy; pregnancy; alcohol or drug abuse before and during the study.
# After the pre-treatment with IR radiation, 5-ALA was applied onto slightly abraded skin and left to incubate for 60 minutes on both IR-pre-treated and control sides. Then, the 5-ALA treated regions were irradiated with a LED source of red light (wavelength of […], in accordance to standard therapy, until a mild to moderate erythema appeared. Immediately afterwards, the 5-ALA treated regions were irradiated with a LED source of blue light (wavelength of 405 nm, power density 30 mW/cm^2) in continuous wave mode for 3 min.
smiles,measurement,setting,value
"NCC(=O)CCC(=O)O [5-ALA, 5-aminolevulinic acid]","number of cystic lesions, pre-treated versus control side",[1],statistically significant decrease in the number of cystic lesions
same,decrease in the number of cystic lesions,"[2]; IR pre-treated side (970 nm, 50 mW/cm2, 15 min)",72.5%
same,mean+/-standard error number of lesions after treatment,"[2]; IR treated site, baseline 49.7+/-13.7",12.0+/−2.3
same,treatment-related adverse effects,[2]; both sides,No treatment-related adverse effects were reported
same,decrease in the number of cystic lesions,[2]; control side (no IR),47.1%
same,mean+/-standard error number of lesions after treatment,"[2]; control side, baseline 35.9+/-8.3",16.3+/−3
